In publication PMC3390971 (Clinical Cancer Research, 2010):
Several values for one entry are separate records, joined by “and”; a condition that tells them apart may be missing. Identical values can stand only once. Like-named read-outs stand apart in the source and are kept apart here. Marks after values point to notes of the source that are not given here.

How the values were obtained:
HT29 cells [1] = test: Clonogenic cell killing in stirred single cell suspensions; type: cell-based, human; conditions: anoxia, mean ± SEM
HT29 cells [2] = conditions: HT29 cell suspensions, mean ± SEM
[3] = mouse, in vivo
[4] = cited from earlier work
HT29 MCL [5] = test system: HT29 MCL
8 human tumor cell lines = test: In vitro growth inhibition; type: cell-based; conditions: 8 cell lines
HT29 MCL [6] = test: Diffusion in multicellular layers; conditions: higher than TPZ
[7] = cited from earlier work; remark: listed apart in the source
[8] = test system: HT29, SiHa and H460 xenografts; test: Excision; type: in vivo, CD-1 nude mice; conditions: three xenograft models, 75% of MTD
[9] = Mouse plasma protein binding; type: in vitro ADME; conditions: mean ± SEM
[10] = cited from earlier work; remark: listed apart in the source
SiHa xenografts = test: SiHa xenograft tumor regrowth assay with fractionated radiation; type: in vivo, CD-1 nude mice; conditions: for Radiation-induced tumor regrowth delay: 30 min before each of 2 Gy × 8
HT29 cells [11] = test: Oxygen dependence of cytotoxicity and metabolism in stirred cell suspensions; type: cell-based, human; conditions: mean ± SEM
[12] = cited from earlier work; remark: listed apart in the source
[13] = Animal toxicity: maximum tolerated dose in mice; type: in vivo
[14] = Plasma pharmacokinetics in mice; conditions: male CD-1 nude mice, single i.p. dose at 75% of MTD
[15] = Animal toxicity: maximum tolerated dose in rats; type: in vivo
[16] = mouse; cited from earlier work
HT29 cells [17] = conditions: cited from earlier work

## [O-][n+]1nc(CCCN2CCOCC2)[n+]([O-])c2cc3c(cc21)CCC3 [SN30000]
HT29 cells [1]
  γ, proportionality constant in PD model (anoxic clonogenic potency coefficient): 5.34 ± 0.89 (13) ×10^−5 µM^−2
HT29 cells [2]
  kmet0, first order rate constant for prodrug metabolism under anoxia: 1.53 ± 0.21 min^−1 and 1.53 ± 0.21 (8) min^−1
[3]
  i.p. bioavailability: 77%
[4]
  Calculated amine pKa: 7.1 ^c
HT29 MCL [5]
  D, diffusion coefficient in HT29 MCLs and tumors: 1.26 ± 0.11 (6) ×10^−6 cm^2s^−1
8 human tumor cell lines
  HCR (aerobic IC50 / anoxic IC50) compared across compounds: consistently higher
8 human tumor cell lines; 4 h exposure, anoxia
  Potency under anoxia (hypoxic IC50) compared with TPZ: consistently more potent than TPZ
HT29 MCL [6]
  DMCL relative to TPZ: 3 fold
[7]
  E(1) One electron reduction potential: −399 ± 8 ^c mV
  One-electron reduction potential difference (higher than TPZ): 57 mV
[8]
  Therapeutic gain over TPZ with single dose radiation: ~3 fold
[9]
  θ, free fraction of drug in plasma in mice: 83 ± 1%
[10]
  Solubility in culture medium at 37°C: 48.5 ^c mM
SiHa xenografts; 176 µmol/kg/dose, p=0.0058 log rank test
  Radiation-induced tumor regrowth delay: highly significant increases
SiHa xenografts; 263 µmol/kg/dose, 8-dose schedule, without radiation
  Activity of drug alone in tumor regrowth assay: not significantly active
SiHa xenografts; 263 µmol/kg/dose, p=0.0004 log rank test
  Radiation-induced tumor regrowth delay: highly significant increases
HT29 cells [11]
  KO2, O2 concentration to halve anoxic cytotoxic potency: 1.14 ± 0.24 µM
[12]
  Log P, pH 7.4 (octanol:water partition coefficient): 0.50 ± 0.05 ^c
[13]; i.p., 9 am and 3 pm, 4 consecutive days, CD-1 nude mice
  MTD for bi-daily dosing for 4 consecutive days (BID1-4): 237 µmol/kg
[13]; single i.p. administration, male CD-1 nude mice
  Maximum tolerated dose (MTD): 275 mg/kg
[13]; single i.p., male CD-1 nude mice, higher than TPZ
  MTD (molar dose) relative to TPZ: 4.2 fold
[14]
  AUCp∞, area under the plasma (total drug) concentration-time curve extrapolated to infinity in mice: 79 µM·h
  t½, plasma terminal half life in mice: 32 min and 32.1 min
[15]; Sprague-Dawley rats, both sexes, single i.p. dose
  MTD: 316 µmol/kg

## Nc1n[n+]([O-])c2ccccc2[n+]1[O-] [TPZ, tirapazamine, reference compound]
HT29 cells [1]
  γ, proportionality constant in PD model (anoxic clonogenic potency coefficient): 2.41± 0.13 (72) ×10^−5 µM^−2
[16]
  θ, free fraction of drug in plasma in mice: 100 ± 5.3 ^f %
HT29 MCL [5]; human
  D, diffusion coefficient in HT29 MCLs and tumors: 0.40 ± 0.02 (12) ×10^−6 cm^2s^−1
[7]
  E(1) One electron reduction potential: −456 ± 8 ^a mV
[12]
  Log P, pH 7.4 (octanol:water partition coefficient): −0.34 ± 0.02 ^a
[13]; CD-1 nu/nu, mouse, in vivo, ip
  MTD at 4 days: 75 µmol/kg
[13]; male, CD-1 nu/nu, mouse, in vivo, ip
  MTD at 28 days: 178 µmol/kg
HT29 cells [17]
  KO2, O2 concentration to halve anoxic cytotoxic potency: 1.21 ± 0.09 ^d µM
[15]; both, Sprague-Dawley, rat, in vivo, ip
  MTD at 28 days: 178 µmol/kg
